From the Biogen ADME set (Fang et al. 2023) come the findings set out here.

The structures appear in SMILES notation. Values after ≈ are worked out from the molar mass of the structure shown. Some results are limits rather than exact numbers.

For this series the following is noted: for aqueous solubility: pH 6.8.

The term aqueous solubility denotes the dissolved amount per volume that the medium holds. A higher aqueous solubility goes with much dissolved substance. Take `Cc1c(Cl)ccc2cc3n(c12)[C@@H](C)CNC3=O`: the MDR1-MDCK efflux ratio is 0.513; the fraction unbound, human plasma came out at 0.0213; the fraction unbound, rat plasma was determined as 0.0497; the intrinsic clearance, human liver microsomes is 10.8 mL/min/kg. Also, the intrinsic clearance, rat liver microsomes turned out to be 70.4 mL/min/kg and the aqueous solubility is 33.3 µg/mL (≈ 134 µM).

`Cc1cc(C(=O)NCC2CCN(c3ccc4ccccc4n3)CC2)cnc1C`: the MDR1-MDCK efflux ratio came to 2.19; the intrinsic clearance, human liver microsomes was found to be 58.1 mL/min/kg; the intrinsic clearance, rat liver microsomes worked out at 477 mL/min/kg.

As to `Cc1nn(C)c(C)c1-c1cc(C(C)(C)C)nc(N(C)C)n1`, the MDR1-MDCK efflux ratio came to 0.619; the intrinsic clearance, human liver microsomes is 51.6 mL/min/kg; the intrinsic clearance, rat liver microsomes was determined as 366 mL/min/kg.

Regarding `CCCn1nccc1NC(=O)c1c(C)noc1C`, the MDR1-MDCK efflux ratio came out at 1.59; the intrinsic clearance, human liver microsomes is at most 4.74 mL/min/kg; the intrinsic clearance, rat liver microsomes was at most 10.7 mL/min/kg; the aqueous solubility was 31.5 µg/mL (≈ 127 µM).

In the case of `Cn1ccc2c(NC(=O)N3CCCN(C(=O)Oc4ccccc4)CC3)cccc21`, the intrinsic clearance, human liver microsomes came to 41.8 mL/min/kg; the intrinsic clearance, rat liver microsomes came out at 777 mL/min/kg; the aqueous solubility was 71.9 µg/mL (≈ 183 µM).

With `N#CCN1CCCN(Cc2ccc(C#N)cc2)CC1`, the intrinsic clearance, human liver microsomes stood at 65.5 mL/min/kg; the intrinsic clearance, rat liver microsomes was found to be 267 mL/min/kg; the aqueous solubility came to 37.8 µg/mL (≈ 149 µM).

Take `Cc1noc2ncc(-c3nnc(CC(C)(C)C)o3)cc12`: the aqueous solubility was found to be 37.7 µg/mL (≈ 138 µM).

`CC(=O)N1CCc2c(sc(NC(=O)C(C)C)c2-c2nc3ccccc3s2)C1` registered an intrinsic clearance, human liver microsomes of 24.9 mL/min/kg and an intrinsic clearance, rat liver microsomes of 228 mL/min/kg.

As to `CCN1CCc2ncnc(N(C)Cc3ccc4c(c3)OCCO4)c2C1`, the MDR1-MDCK efflux ratio amounted to 0.787; the intrinsic clearance, human liver microsomes was determined as 114 mL/min/kg; the intrinsic clearance, rat liver microsomes stood at 448 mL/min/kg; the aqueous solubility stood at 38.9 µg/mL (≈ 114 µM).

As to `Cn1cc(NC(=O)c2cn(Cc3ccccc3)nn2)cn1`, the MDR1-MDCK efflux ratio was determined as 1.03; the intrinsic clearance, human liver microsomes was at most 4.74 mL/min/kg; the intrinsic clearance, rat liver microsomes was at most 10.7 mL/min/kg; the aqueous solubility stood at 23.4 µg/mL (≈ 82.8 µM).

The compound `CS(=O)(=O)N1CCN(Cc2cc3c(cc2O)OCO3)CC1` yielded an intrinsic clearance, human liver microsomes of 28.6 mL/min/kg and an intrinsic clearance, rat liver microsomes of 278 mL/min/kg.

For `CCCn1c(=O)n(Cc2ccc(C#N)cc2F)c2ccccc21`, the MDR1-MDCK efflux ratio was found to be 0.638; the intrinsic clearance, human liver microsomes was found to be 53.8 mL/min/kg; the intrinsic clearance, rat liver microsomes was found to be 632 mL/min/kg; the aqueous solubility turned out to be 14.7 µg/mL (≈ 47.6 µM).

Take `Cc1cccc(NC(=O)c2ccc3ccccc3c2)n1`: the MDR1-MDCK efflux ratio was determined as 0.126; the intrinsic clearance, human liver microsomes was 91.8 mL/min/kg; the intrinsic clearance, rat liver microsomes was 209 mL/min/kg; the aqueous solubility worked out at 1.17 µg/mL (≈ 4.46 µM).

Regarding `NCc1cccnc1OCc1ccccc1`, the MDR1-MDCK efflux ratio amounted to 0.434; the intrinsic clearance, human liver microsomes was 11.7 mL/min/kg; the intrinsic clearance, rat liver microsomes worked out at 747 mL/min/kg; the aqueous solubility was determined as 25.5 µg/mL (≈ 119 µM).

Turning to `CNC(=O)C1(Cc2ccc(-c3cccnc3)cc2)CCN(Cc2ccc(F)cc2)C1` (centres undefined), the MDR1-MDCK efflux ratio is 1.53; the fraction unbound, human plasma was determined as 0.105; the fraction unbound, rat plasma was found to be 0.083; the intrinsic clearance, human liver microsomes was 228 mL/min/kg. The same compound registered an intrinsic clearance, rat liver microsomes of 756 mL/min/kg.

Turning to `N#Cc1cnn(-c2nc(-c3ccc(Br)s3)cs2)c1N`, the aqueous solubility came out at 1.9 µg/mL (≈ 5.39 µM).

In turn, `CC(C)(C)OC(=O)N1CCCC1C(=O)N1CCC(C(=O)N[C@@H](Cc2c[nH]c3ccccc23)C(=O)O)CC1` (some centres undefined) yielded a fraction unbound, human plasma of 0.492; a fraction unbound, rat plasma of 0.696; an intrinsic clearance, human liver microsomes of at most 4.74 mL/min/kg.

Regarding `CC1(CNC(=O)N2CCN(Cc3ccon3)CC2)CCCC1`, the MDR1-MDCK efflux ratio was 2.07; the intrinsic clearance, human liver microsomes worked out at 7.42 mL/min/kg; the intrinsic clearance, rat liver microsomes is 308 mL/min/kg.

On to `O=C(NC1CCCCCC1)c1ccc(-c2cnco2)cc1`, for which the MDR1-MDCK efflux ratio came out at 0.516; the intrinsic clearance, human liver microsomes worked out at 14.9 mL/min/kg; the intrinsic clearance, rat liver microsomes turned out to be 90.4 mL/min/kg; the aqueous solubility was found to be 9.2 µg/mL (≈ 32.4 µM).

Consider `Cc1ccc(S(=O)(=O)NC(=O)c2c(C)cc3n2CCn2c(C)ccc2-3)cc1`, for which the aqueous solubility was determined as 33.1 µg/mL (≈ 86.3 µM).

Take `COc1ccc(Cc2ncnn2-c2ccc3c(c2)OCO3)c(OC)c1`: the MDR1-MDCK efflux ratio stood at 0.614; the intrinsic clearance, human liver microsomes worked out at 131 mL/min/kg; the intrinsic clearance, rat liver microsomes is 3040 mL/min/kg; the aqueous solubility came out at 34.9 µg/mL (≈ 103 µM).

Consider `NC(=O)C1(Cc2ccc(-c3cccnc3)cc2)CCN(Cc2cccc(Cl)c2)CC1`, for which the MDR1-MDCK efflux ratio amounted to 4.87; the intrinsic clearance, human liver microsomes was 183 mL/min/kg; the intrinsic clearance, rat liver microsomes came to 1360 mL/min/kg; the aqueous solubility was 83.8 µg/mL (≈ 199 µM).

Regarding `CN(CC1(O)CCCC1)c1ncccn1`, the MDR1-MDCK efflux ratio amounted to 1.27; the intrinsic clearance, human liver microsomes is at most 4.74 mL/min/kg; the intrinsic clearance, rat liver microsomes worked out at 132 mL/min/kg; the aqueous solubility turned out to be 32.6 µg/mL (≈ 157 µM).

Compound `Clc1ccc2[nH]c(COc3ccccc3)nc2c1` had an intrinsic clearance, human liver microsomes of 27.9 mL/min/kg; an intrinsic clearance, rat liver microsomes of 338 mL/min/kg; an aqueous solubility of 29.5 µg/mL (≈ 114 µM).

On to `O=C(NCCc1ccc2c(c1)OCCO2)c1ccc2ccccc2n1`, for which the MDR1-MDCK efflux ratio is 0.565; the intrinsic clearance, human liver microsomes turned out to be 123 mL/min/kg; the intrinsic clearance, rat liver microsomes was 1950 mL/min/kg; the aqueous solubility is 9.67 µg/mL (≈ 28.9 µM).

For the compound `O=C(NCCN1C(=O)CSC1=O)c1cc(Cl)c2c(c1)OCO2`, the MDR1-MDCK efflux ratio worked out at 2.69; the intrinsic clearance, human liver microsomes was 13 mL/min/kg; the intrinsic clearance, rat liver microsomes amounted to 83 mL/min/kg; the aqueous solubility was 39.6 µg/mL (≈ 116 µM).

In the case of `Cc1nc2ccccc2n1CCNc1ncccn1`, the intrinsic clearance, human liver microsomes is at most 4.74 mL/min/kg and the intrinsic clearance, rat liver microsomes worked out at 299 mL/min/kg.

On to `CC(C)c1ccc(NC(=O)c2ccc3nccnc3c2)cc1`, for which the intrinsic clearance, human liver microsomes was 29.1 mL/min/kg; the intrinsic clearance, rat liver microsomes was 608 mL/min/kg; the aqueous solubility was 4.96 µg/mL (≈ 17 µM).

`N#CCn1c(C(=O)O)cc2ccccc21`: the aqueous solubility was 41.5 µg/mL (≈ 207 µM).

For the compound `COc1ccc(CCn2c(C3CC3)n[nH]c2=O)cc1`, the MDR1-MDCK efflux ratio came to 1; the intrinsic clearance, human liver microsomes was 5.56 mL/min/kg; the intrinsic clearance, rat liver microsomes was 366 mL/min/kg; the aqueous solubility came out at 28.4 µg/mL (≈ 109 µM).

On to `Cc1cnc(N2CCSCC2)nc1N1CCSCC1`, for which the MDR1-MDCK efflux ratio is 0.691; the intrinsic clearance, human liver microsomes worked out at 193 mL/min/kg; the intrinsic clearance, rat liver microsomes amounted to 2640 mL/min/kg.

For the compound `Clc1ccccc1C(c1ccccc1)(c1ccccc1)n1ccnc1`, the aqueous solubility was found to be 3.73 µg/mL (≈ 10.8 µM).

Consider `c1ccc2c(c1)nnn2Cc1ccc2c(c1)OCO2`, for which the MDR1-MDCK efflux ratio is 0.581 and the aqueous solubility turned out to be 0.96 µg/mL (≈ 3.79 µM).

Regarding `CC(C)[C@H](Nc1ncc(Cl)cn1)C(=O)N1CCCC1`, the MDR1-MDCK efflux ratio came to 1.08; the intrinsic clearance, human liver microsomes stood at 15.4 mL/min/kg; the intrinsic clearance, rat liver microsomes turned out to be 181 mL/min/kg; the aqueous solubility came to 36.2 µg/mL (≈ 128 µM).

Consider `CC(C)c1cc(CN(C)Cc2c[nH]nc2-c2ccc(F)cc2)no1`, for which the MDR1-MDCK efflux ratio is 1.01; the intrinsic clearance, human liver microsomes came out at 325 mL/min/kg; the intrinsic clearance, rat liver microsomes was determined as 1780 mL/min/kg; the aqueous solubility came to 22.2 µg/mL (≈ 67.8 µM).

On to `CCN(CC)CC(=O)Nc1ccc(Oc2ccc(C)nn2)cc1`, for which the MDR1-MDCK efflux ratio was determined as 1.62; the intrinsic clearance, human liver microsomes was at most 4.74 mL/min/kg; the intrinsic clearance, rat liver microsomes was 31.6 mL/min/kg.

Regarding `O=C(Cn1nc(Cc2ccccc2)c2ccccc2c1=O)NCc1ncc[nH]1`, the MDR1-MDCK efflux ratio is 92.6; the intrinsic clearance, human liver microsomes is 50.9 mL/min/kg; the intrinsic clearance, rat liver microsomes came to 3330 mL/min/kg.

The compound `CC(C)(C)c1cc(C(=O)CSc2nnnn2-c2ccccc2)cc(C(C)(C)C)c1O` came in with an intrinsic clearance, human liver microsomes of 26.1 mL/min/kg and an intrinsic clearance, rat liver microsomes of 55.8 mL/min/kg.

Consider `Cc1ccccc1OC1CCN(C(=O)Nc2ccc3c(c2)ncn3C)CC1`, for which the MDR1-MDCK efflux ratio amounted to 8.7; the intrinsic clearance, human liver microsomes worked out at 11.4 mL/min/kg; the intrinsic clearance, rat liver microsomes is 54.5 mL/min/kg; the aqueous solubility worked out at 26.7 µg/mL (≈ 73.4 µM).

On to `Cc1cnc(C(=O)N[C@H]2CCOC[C@@H]2O)cc1Cc1ccc(-c2cscn2)cc1`, for which the MDR1-MDCK efflux ratio amounted to 6.89; the intrinsic clearance, human liver microsomes is at most 4.74 mL/min/kg; the intrinsic clearance, rat liver microsomes amounted to 34.8 mL/min/kg; the aqueous solubility is 61.9 µg/mL (≈ 151 µM).

In the case of `O=C(Nc1cccc(N2CCNC2=O)c1)C1NCC12CCCC2` (centres undefined), the MDR1-MDCK efflux ratio turned out to be 22; the fraction unbound, human plasma was determined as 0.523; the intrinsic clearance, human liver microsomes is at most 4.74 mL/min/kg.

For `COCCNC(=O)c1nnc2n(c1=O)CCN2c1ccccc1`, the MDR1-MDCK efflux ratio came out at 9.52; the intrinsic clearance, human liver microsomes was at most 4.74 mL/min/kg; the intrinsic clearance, rat liver microsomes is at most 10.7 mL/min/kg.

`CCc1nc(CN2C(=O)COc3ccc(F)cc32)cs1`: the MDR1-MDCK efflux ratio came to 0.688; the intrinsic clearance, human liver microsomes was 65.1 mL/min/kg; the intrinsic clearance, rat liver microsomes was 1250 mL/min/kg; the aqueous solubility was 20.9 µg/mL (≈ 71.5 µM).

`COc1cccc(Cc2nc3sc4c(c3c(=O)[nH]2)CCSC4)c1`: the MDR1-MDCK efflux ratio is 1.02; the intrinsic clearance, human liver microsomes was found to be 113 mL/min/kg; the intrinsic clearance, rat liver microsomes turned out to be 2820 mL/min/kg.

`CCN(CC)CC(=O)N1CCC(n2c(=O)[nH]c3ccccc32)CC1`: the intrinsic clearance, human liver microsomes is at most 4.74 mL/min/kg; the intrinsic clearance, rat liver microsomes stood at 23.5 mL/min/kg; the aqueous solubility turned out to be 48.9 µg/mL (≈ 148 µM).

With `Cc1c(-c2ccccc2)oc2c(C(=O)NCCCN3CCCCC3)cccc2c1=O`, the MDR1-MDCK efflux ratio came to 11; the intrinsic clearance, human liver microsomes is 13.3 mL/min/kg; the intrinsic clearance, rat liver microsomes was 106 mL/min/kg; the aqueous solubility stood at 48.7 µg/mL (≈ 120 µM).

`CCOC(=O)C1(Cc2cc(-c3cccc(F)c3)no2)CCN(Cc2ccccc2O)CC1`: the aqueous solubility turned out to be 0.68 µg/mL (≈ 1.55 µM).

In turn, `NC(=O)Cn1c2ccccc2c2nc3ccccc3nc21` came in with an aqueous solubility of 0.15 µg/mL (≈ 0.543 µM).
